Active and inactive are the calls of the source.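 How the source made its calls: active means compounds giving half or more protection of infected cells from virus-caused growth loss, again on retest; inactive means the rest.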 Where a SMILES comes first, the peptide text is derived from it. [ ]: non-standard residue; d: D form. The star is where a group is joined. Cbz = O=C(OCc1ccccc1)*; Boc = CC(C)(C)OC(=O)*; Aib = CC(C)(N)C(=O)O; OBn = c1ccc(CO*)cc1; OtBu = CC(C)(C)O*; βAla = NCCC(=O)O
Test system: CEM cells HIV-1 protection, formazan growth assay
Test: NCI AIDS Antiviral Assay
Settings: for IC50: measured here: growth of uninfected CEM cells
Procedure, shortened: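 Category rules: moderately active means at least 50% protection on retest, and confirmed active means 100% protection reproducibly. The underlying data came from a formazan growth assay in HIV-1-infected CEM cells.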

| Structure (SMILES) | EC50 [µM] | IC50 [µM] | outcome |
| --- | --- | --- | --- |
| Cn1c2ccccc2c(=S)c2c(O)cc3c(c21)C=CC(C)(C)O3 | > 200 | > 200 | – |
| N#CC(C#N)=CN1C(=O)CNC1=S | > 200 | > 200 | – |
| CN1NC2=NCCN=C3NN(C)C(=NCCN=C1S2)S3 | – | > 200 | inactive |
| CCOC(OCC)c1ccc(C(F)(F)F)cc1.[C-]#[O+].[C-]#[O+].[C-]#[O+].[Cr] | > 20 | 3.02 | – |
| CC(C)(CN1CCCCC1)C(=O)/C=C/c1ccc(Br)cc1 | > 129 | 1.7 | – |
| Cc1cccc(NC(=S)Nc2ccccc2Cl)n1 | 141 | > 200 | – |
| CCCCCCCCCCCC(=O)OCCOCCOCCOCCOCCOC(=O)CCCCCCCCCCC | – | – | inactive |
| CCCCC[C@H]1CCCCCCCCCC(=O)OC2C(O[C@@H]3OC(C)[C@H](OC(=O)[C@@H](C)CC)C(O[C@@H]4OC(C)[C@H](O)C(O)[C@@H]4O)[C@@H]3OC(=O)[C@H](C)CC)[C@H](OC3C(O)[C@@H](O)C(C)O[C@H]3O1)OC(CO)[C@H]2O (stereo partly specified) | > 200 | 11.2 | – |
| O=c1ccn([C@@H]2C[C@H](CO)CS(=O)C2)c(=O)[nH]1 (stereo partly specified) | > 977 | > 977 | – |
| CN(CCO)c1nc2c(c(=O)[nH]1)CCC2 | > 240 | > 240 | – |
| O=C(NCc1ccccc1)c1c(O)c2ccccc2[nH]c1=O | > 200 | > 200 | – |
| CCN1C[C@]2(COC)C(O)CC(OC)C34[C@@H]5C[C@@]6(O)C(O)[C@@H]5[C@](O)(C(O)[C@@H]6OC)[C@@H](C(OC)[C@@H]32)[C@H]14 (stereo partly specified) | – | – | inactive |
| CCCCCCCCCCN(CCCCCCCCCC)C(=O)COc1c2cc(C(C)(C)C)cc1Cc1cc(C(C)(C)C)cc(c1OCC(=O)N(CCCCCCCCCC)CCCCCCCCCC)Cc1cc(C(C)(C)C)cc(c1OCC(=O)N(CCCCCCCCCC)CCCCCCCCCC)Cc1cc(C(C)(C)C)cc(c1OCC(=O)N(CCCCCCCCCC)CCCCCCCCCC)C2 | > 50.1 | 3.39 | – |
| CC(=O)Nc1ccc(/C=C/C(=O)c2sc(-c3cccnc3)nc2C)cc1 | > 51.3 | > 51.3 | – |
| COc1ccc(/C=N/n2c(C)nc3c(sc(=S)n3-c3ccccc3)c2=O)cc1 | > 12.6 | > 12.6 | – |
| CC1=NN(c2ccccc2)C(=O)C1N=Nc1ccc(S(=O)(=O)Nc2occ(C)c2C)cc1 (stereo unspecified) | – | – | inactive |
| CCSc1n/c(=C\c2ccco2)c2nnnn12 | > 50.1 | > 50.1 | – |
| O=C1N(Cc2ccccc2)CC(O)CN1Cc1ccccc1 | > 200 | 174 | – |
| FC(F)(Sc1ncccn1)c1nc(-c2ccccc2)no1 | > 200 | 53.7 | – |
| OC12CC/C(=N/OCc3ccccc3)CC1c1ccccc12 (stereo unspecified) | > 162 | 148 | – |
| Cc1ccc(S(=O)(=O)C2c3nc4ccccc4cc3-c3nc4ccccc4nc32)cc1 (stereo unspecified) | > 32.4 | > 32.4 | – |
| O=C(/C=N/O)Nc1cccc(Cl)c1I | > 110 | 93.3 | – |
| CC(=O)OC1CCC2(C)C(CCC3C4CC=C(C(C)=O)C4(C)OC(=O)CC32)C1 (stereo unspecified) | – | – | inactive |
| CC(C)c1ccc(/C=C2\CSC/C(=C\c3ccc(C(C)C)cc3)C2=O)cc1 | > 200 | 123 | – |
| CCN(CC)c1ccc(/C=C2/C[N+](C)(C)C/C(=C/c3ccc(N(CC)CC)cc3)C2=O)cc1 | > 6.61 | 6.46 | – |
| CCCC(=O)OC1C(C(O)CO)OC2OC(C)(C)OC21 (stereo unspecified) | > 871 | > 871 | – |
| CC[C@H]1C2OC(=O)[C@H](C)C2[C@@]2(O)C[C@@H]([C@@H]3C[C@H](C)C(=O)O3)N3CCCC[C@@]12C3=O (stereo partly specified) | > 200 | > 200 | – |

| Structure (SMILES) | EC50 [µM] | IC50 [µM] | outcome |
| --- | --- | --- | --- |
| OC(c1ccc2c(c1)OCO2)c1ccc2c(c1)OCO2 | > 200 | 178 | – |
| C#CCC(N)(CO)C(=O)O (stereo unspecified) | – | – | inactive |
| O=c1[nH]c2ccc(C(F)(F)F)cc2nc1Cc1ccccc1 | > 200 | 74.1 | – |
| Cc1nc2n(C)c3ncn(Cc4ccccc4)c3c(=O)n2c1/C=C/C(C)C | > 33.1 | > 33.1 | – |
| O=c1[nH]ncc(N/N=C(/C=C/c2ccc(C/C(=N/Nc3cn[nH]c(=O)c3Cl)c3ccccc3)cc2)c2ccccc2)c1Cl | – | – | inactive |
| O=C(CC(=O)n1nc(-c2ccccc2)c(N=Nc2ccc([N+](=O)[O-])cc2)c1-c1ccccc1)Nc1ccc(Cl)cc1 | > 45.7 | > 45.7 | – |
| CN(C)/N=N/c1nc2c(c(=O)n(C)c(=O)n2C)n1CC(O)CO (stereo unspecified) | > 200 | > 200 | – |
| O=C1C=CC(=O)c2nc3c(nc21)[nH]c1ccccc13 | > 26.3 | 13.2 | – |
| Cc1sc2ncnc(N)c2c1C | > 275 | > 275 | – |
| Nc1ccn(C2OC(C(O)CO)C(O)C2O)c(=O)n1 (stereo unspecified) | – | – | inactive |
| COc1ccc(-c2c(C#N)c(O)n(NS(=O)(=O)c3ccc(C)cc3)c(=O)c2C#N)cc1 | > 200 | 56.2 | – |
| O=C1c2ccccc2C(=O)N1Cc1ccccc1-c1c2nc(c(-c3ccccc3CN3C(=O)c4ccccc4C3=O)c3ccc([nH]3)c(-c3ccccc3CN3C(=O)c4ccccc4C3=O)c3nc(c(-c4ccccc4CN4C(=O)c5ccccc5C4=O)c4ccc1[nH]4)C=C3)C=C2 | > 4.17 | > 4.17 | – |
| Cc1cc(C)nc(NS(=O)(=O)c2ccc(Nc3c4ccccc4nc4c(C(=O)NNCCO)cccc34)cc2)n1 | > 200 | 33.1 | – |
| CCOP(=O)(OCC)/C(=C/c1cccs1)CC(C)=O | > 200 | > 200 | – |
| Cc1cc(NS(=O)(=O)c2ccc(Nc3c4ccccc4nc4c(C(=O)Nc5ccc(S(=O)(=O)O)cc5)cccc34)cc2)no1 | 123 | > 200 | – |
| CCOC(=O)C(=O)CC1=CC=CC2=NC(=O)CCN12 | > 200 | > 200 | – |
| CC(C)(C)c1cc(-c2ccc(-c3cc(C(C)(C)C)c(O)c(C(C)(C)C)c3)cc2)cc(C(C)(C)C)c1O | > 100 | > 100 | – |
| CN(C)c1n/c(=N/c2ncn[nH]2)ss1 | – | – | inactive |
| CC(C)(C)OC(=O)CC(NC(=O)OC(C)(C)C)C(=O)NC(CCCCNC(=O)OCc1ccccc1)C(=O)NC(C)(C)C(=O)NCCC(=O)OCc1ccccc1 (stereo unspecified) (Boc-D(OtBu)K(Cbz)[Aib][βAla]-OBn; configuration not given here) | > 100 | > 100 | – |
| CC(=O)Nc1ccc(S(=O)(=O)Nc2ccc([N+](=O)[O-])cc2)cc1 | > 200 | > 200 | inactive |
| O=C1CC[C@H](O)Cc2ccc(O)c(c2)-c2cc(ccc2O)CC1O (stereo partly specified) | > 759 | 724 | – |
| COC(=O)C1C2CC3C(OC(=O)C31)C2OC(=O)[C@](OC)(c1ccccc1)C(F)(F)F (stereo partly specified) | > 83.2 | > 83.2 | – |
| O=S(=O)(O)c1cc(N=Nc2ccc(O)c3ncccc23)ccc1/C=C/c1ccc(N=Nc2ccc(O)c3ncccc23)cc1S(=O)(=O)O | > 105 | > 105 | – |
| O=S1(=O)OC2(CCCCC2)c2ccccc21 | > 209 | > 209 | – |
| Cc1ccccc1NC(=O)C(=O)CC(=O)c1ccc([N+](=O)[O-])cc1 | > 8.32 | > 8.32 | – |
| COC1/C=C/OC2(C)Oc3c(C)c(O)c4c(O)c(c(/C=N/N(C)C(C)C(O)c5ccccc5)c(O)c4c3C2=O)NC(=O)C(C)=C/C=C/C(C)C(O)C(C)C(O)C(C)C(OC(C)=O)C1C (stereo unspecified) | > 200 | 9.55 | – |
| CN1C(=O)N(C)C2(CCN(CC(CC3OCCO3)c3ccc(F)cc3)CC2)C1=O (stereo unspecified) | > 200 | > 200 | – |
